# Measurements from patent US6514692B2, “Method for treatment of immunodeficiency virus infection” (priority 1996, dated 2003).
# “And” between values parts separate entries of the source, which are not always exact repeats. Identical values can stand only once. Like-named read-outs stand apart in the source and are kept apart here.
# Columns and labels:
# [1] = system: SK1 isolate of HIV-1; conditions: for p24 VALUES, single samples: samples 1-3; for IC50 (inhibition of cell-cell transmission): linear regression
# Description: (§1) ME180 cells, a cervical epithelial cell line, were obtained from the American Type Culture Collection. These cells were thawed from liquid nitrogen and grown in RPMI 1640 medium supplemented with 10t fetal bovine serum, glutamine and antibiotics. The cells were adherent and were trypsinized (0.5% trypsin in HBSS) to remove them from the flask for passaging and use in assays. For use in the microtiter transmission inhibition assay, ME180 cells were trypsinized, washed and seeded in 96-well flat bottom microtiter plates (COSTAR) at a density of 5×10^3 cells per well. The cells were incubated at 37° C. for 24 hours prior to the tart of the assay. H9 cells chronically infected with he SK1 isolate of HIV-1 were treated with 200 μg/ml mitomycin C for 60 minutes at 37° C. After treatment the cells were washed three times with tissue culture medium. The chronically infected lymphocytes were added to each well at a density of 2×10^4 cells per well. The concentration of mitomycin C used in the treatment of the lymphocytes was chosen to allow lymphocyte survival for the period of time required to transmit virus to the uninfected ME180 cells, but to die prior to the time of assay so as not to contribute to the p24 signal used as the endpoint (see below). In the transmission assay the lytic peptides D4E1 and D2A21, with and without 150 μg/ml pig mucin, were added prior to the addition of chronically infected cells or were mixed with the chronically infected cells prior to their addition to the monolayer of ME180 cells. Mucin was included because it is an abundant constituent of the normal vaginal secretions of a human being, thus any chemotherapeutic agent targeting HIV should be active in its presence if it is to have clinical value. […] The lymphocytes and peptide were co-cultured with the ME180 cells for 6 hours and then removed by washing the ME180 monolayer four times with PBS. The plate was then incubated at 37° C. for six days. Medium was removed and changed every 48 hours during the incubation stage. No further peptide was added after the initial dose. At six days post-co-cultivation, the supernatant was removed from the wells and evaluated for the quantity of p24 antigen by ELISA. The ELISA was performed according to the manufacturer's recommendations. The amount of virus production in wells treated with various concentrations of the peptides was evaluated with appropriate cell and virus controls. Data are reported as a percent of virus control at each drug concentration. Linear regression analysis was used to calculate the […] and IC95 concentrations of the transmission inhibitor. […] TI represents the toxicity index, which is the ratio of the TC50/IC50, and is an indication of the relative concentrations window that exists between efficacy and toxicity.
# [2] = system: ME180 cells; assay: toxicity (XTT) in transmission inhibition assay; conditions: for TOXICITY VALUES (XTT), single samples: samples 1-3; for TC50 (concentration at which 50% of cells are eliminated): interpolation from % CC
# Description: as §1
# [3] = 0.32 μg/ml, with 150 μg/ml pig mucin
# [4] = 1 μg/ml, with 150 μg/ml pig mucin
# [5] = 3.2 μg/ml, with 150 μg/ml pig mucin
# [6] = 10 μg/ml, with 150 μg/ml pig mucin
# [7] = 32 μg/ml, with 150 μg/ml pig mucin
# [8] = 100 μg/ml, with 150 μg/ml pig mucin
substance,measurement,setting,value
Dextran,"% VC (p24, percent of virus control)","[1]; 0.32 μg/ml, no mucin",93.4%
same,"p24 VALUES, MEAN","[1]; 0.32 μg/ml, no mucin",51.0 µg/mL
same,"p24 VALUES, single samples","[1]; 0.32 μg/ml, no mucin",52.2 µg/mL and 52.5 µg/mL and 48.2 µg/mL
same,"% VC (p24, percent of virus control)",[1]; [3],90.6%
same,"p24 VALUES, MEAN",[1]; [3],56.2 µg/mL
same,"p24 VALUES, single samples",[1]; [3],56.2 µg/mL and 53.5 µg/mL and 58.9 µg/mL
same,"% VC (p24, percent of virus control)","[1]; 1 μg/ml, no mucin",100.2%
same,"p24 VALUES, MEAN","[1]; 1 μg/ml, no mucin",54.7 µg/mL
same,"p24 VALUES, single samples","[1]; 1 μg/ml, no mucin",53.5 µg/mL and 57.0 µg/mL
same,"% VC (p24, percent of virus control)",[1]; [4],86.72%
same,"p24 VALUES, MEAN",[1]; [4],53.1 µg/mL
same,"p24 VALUES, single samples",[1]; [4],51.0 µg/mL and 57.5 µg/mL and 50.9 µg/mL
same,"% VC (p24, percent of virus control)","[1]; 3.2 μg/ml, no mucin",91.4%
same,"p24 VALUES, MEAN","[1]; 3.2 μg/ml, no mucin",49.9 µg/mL
same,"p24 VALUES, single samples","[1]; 3.2 μg/ml, no mucin",50.3 µg/mL and 47.2 µg/mL and 52.2 µg/mL
same,"% VC (p24, percent of virus control)",[1]; [5],88.2%
same,"p24 VALUES, MEAN",[1]; [5],54.7 µg/mL
same,"p24 VALUES, single samples",[1]; [5],52.1 µg/mL and 54.7 µg/mL and 57.3 µg/mL
same,"% VC (p24, percent of virus control)","[1]; 10 μg/ml, no mucin",84.1%
same,"p24 VALUES, MEAN","[1]; 10 μg/ml, no mucin",45.9 µg/mL
same,"p24 VALUES, single samples","[1]; 10 μg/ml, no mucin",45.3 µg/mL and 45.7 µg/mL and 46.6 µg/mL
same,"% VC (p24, percent of virus control)",[1]; [6],92.6%
same,"p24 VALUES, MEAN",[1]; [6],57.5 µg/mL
same,"p24 VALUES, single samples",[1]; [6],53.2 µg/mL and 58.1 µg/mL and 61.1 µg/mL
same,"% VC (p24, percent of virus control)","[1]; 32 μg/ml, no mucin",96.0%
same,"p24 VALUES, MEAN","[1]; 32 μg/ml, no mucin",52.4 µg/mL
same,"p24 VALUES, single samples","[1]; 32 μg/ml, no mucin",51.9 µg/mL and 53.2 µg/mL and 52.0 µg/mL
same,"% VC (p24, percent of virus control)",[1]; [7],102.7%
same,"p24 VALUES, MEAN",[1]; [7],63.7 µg/mL
same,"p24 VALUES, single samples",[1]; [7],65.5 µg/mL and 60.5 µg/mL and 65.1 µg/mL
same,"% VC (p24, percent of virus control)","[1]; 100 μg/ml, no mucin",94.5%
same,"p24 VALUES, MEAN","[1]; 100 μg/ml, no mucin",51.6 µg/mL
same,"p24 VALUES, single samples","[1]; 100 μg/ml, no mucin",52.6 µg/mL and 52.0 µg/mL and 50.1 µg/mL
same,"% VC (p24, percent of virus control)",[1]; [8],104.2%
same,"p24 VALUES, MEAN",[1]; [8],64.6 µg/mL
same,"p24 VALUES, single samples",[1]; [8],63.7 µg/mL and 59.6 µg/mL and 70.6 µg/mL
same,IC50 (inhibition of cell-cell transmission),[1]; no mucin,IC50 = 100 μg/ml
same,IC50 (inhibition of cell-cell transmission),[1]; with 150 μg/ml pig mucin,IC50 = 100 μg/ml
same,"% CC (XTT, percent of cell control)","[2]; 0.32 μg/ml, no mucin",90.1%
same,"TOXICITY VALUES (XTT), MEAN","[2]; 0.32 μg/ml, no mucin",0.458 O.D. @ 450/650 nm
same,"TOXICITY VALUES (XTT), single samples","[2]; 0.32 μg/ml, no mucin",0.462 O.D. @ 450/650 nm and 0.463 O.D. @ 450/650 nm and 0.488 O.D. @ 450/650 nm
same,"% CC (XTT, percent of cell control)",[2]; [3],90.1%
same,"TOXICITY VALUES (XTT), MEAN",[2]; [3],0.458 O.D. @ 450/650 nm
same,"TOXICITY VALUES (XTT), single samples",[2]; [3],0.462 O.D. @ 450/650 nm and 0.463 O.D. @ 450/650 nm and 0.448 O.D. @ 450/650 nm
same,"% CC (XTT, percent of cell control)","[2]; 1 μg/ml, no mucin",88.1%
same,"TOXICITY VALUES (XTT), MEAN","[2]; 1 μg/ml, no mucin",0.447 O.D. @ 450/650 nm
same,"TOXICITY VALUES (XTT), single samples","[2]; 1 μg/ml, no mucin",0.425 O.D. @ 450/650 nm and 0.457 O.D. @ 450/650 nm and 0.450 O.D. @ 450/650 nm
same,"% CC (XTT, percent of cell control)",[2]; [4],88.1%
same,"TOXICITY VALUES (XTT), MEAN",[2]; [4],0.447 O.D. @ 450/650 nm
same,"TOXICITY VALUES (XTT), single samples",[2]; [4],0.425 O.D. @ 450/650 nm and 0.467 O.D. @ 450/650 nm and 0.450 O.D. @ 450/650 nm
same,"% CC (XTT, percent of cell control)","[2]; 3.2 μg/ml, no mucin",91.1%
same,"TOXICITY VALUES (XTT), MEAN","[2]; 3.2 μg/ml, no mucin",0.463 O.D. @ 450/650 nm
same,"TOXICITY VALUES (XTT), single samples","[2]; 3.2 μg/ml, no mucin",0.477 O.D. @ 450/650 nm and 0.453 O.D. @ 450/650 nm and 0.459 O.D. @ 450/650 nm
same,"% CC (XTT, percent of cell control)",[2]; [5],91.1%
same,"TOXICITY VALUES (XTT), MEAN",[2]; [5],0.463 O.D. @ 450/650 nm
same,"TOXICITY VALUES (XTT), single samples",[2]; [5],0.477 O.D. @ 450/650 nm and 0.453 O.D. @ 450/650 nm and 0.459 O.D. @ 450/650 nm
same,"% CC (XTT, percent of cell control)","[2]; 10 μg/ml, no mucin",92.0%
same,"TOXICITY VALUES (XTT), MEAN","[2]; 10 μg/ml, no mucin",0.467 O.D. @ 450/650 nm
same,"TOXICITY VALUES (XTT), single samples","[2]; 10 μg/ml, no mucin",0.468 O.D. @ 450/650 nm and 0.467 O.D. @ 450/650 nm
same,"% CC (XTT, percent of cell control)",[2]; [6],92.0%
same,"TOXICITY VALUES (XTT), MEAN",[2]; [6],0.467 O.D. @ 450/650 nm
same,"TOXICITY VALUES (XTT), single samples",[2]; [6],0.468 O.D. @ 450/650 nm and 0.467 O.D. @ 450/650 nm
same,"% CC (XTT, percent of cell control)","[2]; 32 μg/ml, no mucin",91.7%
same,"TOXICITY VALUES (XTT), MEAN","[2]; 32 μg/ml, no mucin",0.466 O.D. @ 450/650 nm
same,"TOXICITY VALUES (XTT), single samples","[2]; 32 μg/ml, no mucin",0.457 O.D. @ 450/650 nm and 0.438 O.D. @ 450/650 nm and 0.493 O.D. @ 450/650 nm
same,"% CC (XTT, percent of cell control)",[2]; [7],91.7%
same,"TOXICITY VALUES (XTT), MEAN",[2]; [7],0.466 O.D. @ 450/650 nm
same,"TOXICITY VALUES (XTT), single samples",[2]; [7],0.467 O.D. @ 450/650 nm and 0.438 O.D. @ 450/650 nm and 0.493 O.D. @ 450/650 nm
same,"% CC (XTT, percent of cell control)","[2]; 100 μg/ml, no mucin",97.8%
same,"TOXICITY VALUES (XTT), MEAN","[2]; 100 μg/ml, no mucin",0.497 O.D. @ 450/650 nm
same,"TOXICITY VALUES (XTT), single samples","[2]; 100 μg/ml, no mucin",0.481 O.D. @ 450/650 nm and 0.491 O.D. @ 450/650 nm and 0.519 O.D. @ 450/650 nm
same,"% CC (XTT, percent of cell control)",[2]; [8],97.8%
same,"TOXICITY VALUES (XTT), MEAN",[2]; [8],0.497 O.D. @ 450/650 nm
same,"TOXICITY VALUES (XTT), single samples",[2]; [8],0.481 O.D. @ 450/650 nm and 0.491 O.D. @ 450/650 nm and 0.519 O.D. @ 450/650 nm
same,TC50 (concentration at which 50% of cells are eliminated),[2]; no mucin,TC50 = 100 μg/ml
same,TC50 (concentration at which 50% of cells are eliminated),[2]; with 150 μg/ml pig mucin,TC50 = 100 μg/ml
